Results from the supplement of paper PMC10307832.

What was measured:
Assay in all cases: relative viability (nuclei count vs DMSO), 5 days (fraction); higher = more cells survive
ALW-II-49-7 + Foretinib = compound: Cc1ccc(C(=O)Nc2cccc(C(F)(F)F)c2)cc1Nc1cncc(C(N)=O)c1 [ALW-II-49-7] + COc1cc2c(Oc3ccc(NC(=O)C4(C(=O)Nc5ccc(F)cc5)CC4)cc3F)ccnc2cc1OCCCN1CCOCC1 [Foretinib] (partner 0.25 µM)
In short: (§1)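 Dosing by pin tool came one day after lung cancer cell lines were seeded in 1536-well plates, using either one drug or a fixed anchor-drug dose plus five library-drug doses (not always all listed) in √10 steps. After 5 days, nuclei were counted on 4× images. Relative viability is treated-well nuclei count divided by vehicle-well nuclei count, and values are medians of duplicate plates.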

Dasatinib + Foretinib = compound: Cc1nc(Nc2ncc(C(=O)Nc3c(C)cccc3Cl)s2)cc(N2CCN(CCO)CC2)n1 [Dasatinib] + COc1cc2c(Oc3ccc(NC(=O)C4(C(=O)Nc5ccc(F)cc5)CC4)cc3F)ccnc2cc1OCCCN1CCOCC1 [Foretinib] (partner 0.25 µM)
In short: as §1

Dasatinib + Linsitinib = compound: Cc1nc(Nc2ncc(C(=O)Nc3c(C)cccc3Cl)s2)cc(N2CCN(CCO)CC2)n1 [Dasatinib] + C[C@]1(O)C[C@@H](c2nc(-c3ccc4ccc(-c5ccccc5)nc4c3)c3c(N)nccn32)C1 [Linsitinib] (partner 1 µM)
In short: as §1

Dasatinib + Pemetrexed = compound: Cc1nc(Nc2ncc(C(=O)Nc3c(C)cccc3Cl)s2)cc(N2CCN(CCO)CC2)n1 [Dasatinib] + Nc1nc2[nH]cc(CCc3ccc(C(=O)N[C@@H](CCC(=O)O)C(=O)O)cc3)c2c(=O)[nH]1 [Pemetrexed] (partner 0.2 µM)
In short: as §1

Cell Line | relative viability (ALW-II-49-7 + Foretinib; first compound 0.08 µM) | relative viability (ALW-II-49-7 + Foretinib; first compound 0.253 µM) | relative viability (ALW-II-49-7 + Foretinib; first compound 0.8 µM) | relative viability (ALW-II-49-7 + Foretinib; first compound 2.53 µM) | relative viability (ALW-II-49-7 + Foretinib; first compound 8 µM) | relative viability (Dasatinib + Foretinib; first compound 0.005 µM) | relative viability (Dasatinib + Foretinib; first compound 0.01581 µM) | relative viability (Dasatinib + Foretinib; first compound 0.05 µM) | relative viability (Dasatinib + Foretinib; first compound 0.1581 µM) | relative viability (Dasatinib + Foretinib; first compound 0.5 µM) | relative viability (Dasatinib + Linsitinib; first compound 0.005 µM) | relative viability (Dasatinib + Linsitinib; first compound 0.01581 µM) | relative viability (Dasatinib + Linsitinib; first compound 0.05 µM) | relative viability (Dasatinib + Linsitinib; first compound 0.1581 µM) | relative viability (Dasatinib + Linsitinib; first compound 0.5 µM) | relative viability (Dasatinib + Pemetrexed; first compound 0.005 µM) | relative viability (Dasatinib + Pemetrexed; first compound 0.01581 µM) | relative viability (Dasatinib + Pemetrexed; first compound 0.05 µM) | relative viability (Dasatinib + Pemetrexed; first compound 0.1581 µM) | relative viability (Dasatinib + Pemetrexed; first compound 0.5 µM)
PC-14 | 0.935 | 0.634 | 0.841 | 0.924 | 0.89 | 0.981 | 0.948 | 0.912 | 0.712 | 0.335 | 1 | 0.968 | 0.93 | 0.546 | 0.281 | 0.146 | 0.121 | 0.108 | 0.119 | 0.124
NCI-H2087 | 1.22 | 1.12 | 1.09 | 1.08 | 1.04 | 1.2 | 1.16 | 1.31 | 0.756 | 0.464 | 0.929 | 0.772 | 1.04 | 0.862 | 0.469 | 0.719 | 0.617 | 0.67 | 0.649 | 0.471
HOP-62 | 1.22 | 1.14 | 1.17 | 0.935 | 0.837 | 1.18 | 1.12 | 1 | 0.518 | 0.197 | 1.07 | 1.07 | 0.85 | 0.682 | 0.297 | 0.284 | 0.279 | 0.352 | 0.326 | 0.274
EKVX | 0.781 | 0.753 | 0.898 | 1.05 | 0.746 | 0.757 | 0.84 | 0.753 | 0.455 | 0.135 | 0.945 | 0.683 | 0.778 | 0.314 | 0.142 | 0.384 | 0.376 | 0.335 | 0.371 | 0.152
EMC-BAC-2 | 0.968 | 1.04 | 0.989 | 0.885 | 0.878 | 0.862 | 0.733 | 0.573 | 0.297 | 0.242 | 0.685 | 0.482 | 0.525 | 0.26 | 0.201 | 0.455 | 0.42 | 0.405 | 0.345 | 0.273
HARA | 0.646 | 0.836 | 1.03 | 0.887 | 1.04 | 0.826 | 0.504 | 0.541 | 0.207 | 0.136 | 0.971 | 0.67 | 0.516 | 0.247 | 0.189 | 0.241 | 0.234 | 0.229 | 0.202 | 0.151
LU99A | 0.82 | 0.936 | 0.92 | 0.867 | 0.768 | 0.849 |  | 0.723 | 0.59 | 0.383 | 0.494 | 0.481 | 0.434 | 0.199 | 0.173 | 0.191 | 0.158 | 0.192 | 0.176 | 0.16
NCI-H1944 | 0.997 | 0.801 | 0.964 | 0.846 | 0.954 | 0.849 | 0.684 | 0.701 | 0.291 | 0.21 | 1.15 | 1.34 | 0.787 | 0.419 | 0.276 | 0.573 | 0.583 | 0.49 | 0.234 | 0.158
LK-2 |  | 0.884 | 1.27 | 0.958 | 1.31 | 1.08 | 0.967 | 0.656 | 0.588 | 0.304 | 0.476 | 0.281 | 0.268 | 0.134 | 0.198 | 0.286 |  | 0.201 | 0.128 | 0.202
NCI-H441 | 1.02 | 1.01 | 1.14 | 1.22 | 0.854 | 1.06 | 0.988 | 1.02 | 0.701 | 0.382 | 0.566 | 0.523 | 0.491 | 0.311 | 0.176 | 0.305 | 0.259 | 0.286 | 0.225 | 0.27
NCI-H23 | 0.923 | 1.01 | 1.06 | 0.993 | 1.03 | 0.864 | 0.649 | 0.676 | 0.457 | 0.484 | 0.483 | 0.38 | 0.505 | 0.315 | 0.213 | 0.549 | 0.528 | 0.59 | 0.402 | 0.384
NCI-H647 | 1.36 | 1.32 | 1.23 | 1.09 | 1.06 | 1.11 | 1.17 | 0.649 | 0.276 | 0.252 | 1.02 | 0.46 | 0.627 | 0.319 | 0.192 | 0.156 | 0.137 | 0.117 | 0.0903 | 0.0883
201T |  | 1.24 | 1.01 | 0.447 | 1.13 | 0.945 | 0.883 | 0.816 | 0.531 | 0.346 | 1.03 | 0.953 | 0.812 | 0.679 | 0.371 | 0.404 | 0.332 | 0.31 | 0.292 | 0.268
NCI-H1734 | 0.958 | 0.91 | 0.871 | 0.741 | 0.799 | 0.743 | 0.613 | 0.586 | 0.427 | 0.367 | 0.678 | 0.693 | 0.64 | 0.394 | 0.331 | 0.377 | 0.416 | 0.387 | 0.376 | 0.341
NCI-H596 | 0.949 | 0.902 | 0.886 | 0.841 | 0.937 | 0.688 | 0.66 | 0.521 | 0.376 | 0.291 | 0.854 | 0.828 | 0.784 | 0.449 | 0.328 | 0.486 | 0.47 | 0.439 | 0.415 | 0.359
